This is an account of results in PMC8612341, “Cyclic ^68Ga-Labeled Peptides for Specific Detection of Human Angiotensin-Converting Enzyme 2” (Journal of Nuclear Medicine, 2021).

What is called IC50 is the concentration that inhibits the measured activity by half.

The target in test [1] is T1, ACE2 (Homo sapiens, UniProt Q9BYF1).
T1 construct: purchased AnaSpec AS-72086
As to the kind of experiment: ACE2 inhibition assay (SensoLyte 390 ACE2 Activity Assay Kit, fluorimetric, AnaSpec). The class given is biochemical. As to conditions: for IC50: nonlinear fit of 6-point dilution series, Fig. 2D. The protocol:
Six DX600-derived peptides, named NOTA-PEP1 to NOTA-PEP6 (cyclic vs. noncyclic, with triglycine, aminocaproate, and polyethylene glycol linkers), were studied using a commercially available ACE2 inhibition assay according to the manufacturer’s instructions (SensoLyte 390 ACE2 Activity Assay Kit *Fluorimetric*, AS-72086; AnaSpec). Each peptide inhibitor was first tested at 4 concentrations. Initial velocities were determined relative to the inhibitor free reaction. Subsequently, IC50 values were derived from nonlinear fits of saturation curves of a 6-point dilution series of peptide inhibitors.

The target of test [2] is T1, ACE2. On the set-up: method as in earlier work. To be noted: vs. ACE and carboxypeptidase A; ref 30 (Huang et al.); cited from earlier work.
The mark [3] stands for this setting: fluorometric ACE2 inhibition assay (AnaSpec).

Where a SMILES comes first, the peptide text is derived from it. Bridges are numbered along the chain shown (N, C = ends). The star is where a group is joined. NOTA = O=C(O)CN1CCN(CC(=O)O)CCN(CC(=O)*)CC1

T1 sequence (Q9BYF1 18-805): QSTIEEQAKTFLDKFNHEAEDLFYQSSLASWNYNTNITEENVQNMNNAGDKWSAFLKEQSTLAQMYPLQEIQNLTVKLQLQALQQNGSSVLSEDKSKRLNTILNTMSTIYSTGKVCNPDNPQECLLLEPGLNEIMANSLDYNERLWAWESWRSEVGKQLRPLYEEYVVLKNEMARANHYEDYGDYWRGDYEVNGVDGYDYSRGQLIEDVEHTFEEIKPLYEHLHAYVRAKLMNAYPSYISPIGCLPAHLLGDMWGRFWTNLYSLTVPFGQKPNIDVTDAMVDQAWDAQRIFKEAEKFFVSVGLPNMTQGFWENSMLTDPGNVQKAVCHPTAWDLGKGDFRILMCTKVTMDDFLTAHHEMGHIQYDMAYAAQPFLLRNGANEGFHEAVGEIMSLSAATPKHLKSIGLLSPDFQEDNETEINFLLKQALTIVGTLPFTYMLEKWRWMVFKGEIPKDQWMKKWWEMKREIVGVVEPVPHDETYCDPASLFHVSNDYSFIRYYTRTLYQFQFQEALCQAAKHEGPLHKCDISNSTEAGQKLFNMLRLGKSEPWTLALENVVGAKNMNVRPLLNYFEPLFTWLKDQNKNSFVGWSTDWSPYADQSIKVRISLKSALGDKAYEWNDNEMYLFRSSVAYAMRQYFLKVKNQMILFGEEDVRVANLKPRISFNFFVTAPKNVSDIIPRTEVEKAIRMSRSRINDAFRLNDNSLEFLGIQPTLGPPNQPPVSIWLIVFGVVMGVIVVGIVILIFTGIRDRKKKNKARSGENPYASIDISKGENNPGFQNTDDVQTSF

Regarding `CC(C)C[C@@H]1NC(=O)[C@@H]2CCCN2C(=O)[C@H](CO)NC(=O)[C@@H](NC(=O)[C@H](Cc2c[nH]cn2)NC(=O)[C@H](CO)NC(=O)[C@H](Cc2ccc(O)cc2)NC(=O)[C@H](CC(=O)O)NC(=O)CNC(=O)CNC(=O)CNC(=O)CNC(=O)CN2CCN(CC(=O)O)CCN(CC(=O)O)CC2)CSSC[C@@H](C(=O)N[C@H](C(=O)N[C@@H](Cc2ccc(O)cc2)C(=O)N2CCC[C@H]2C(=O)N[C@@H](CC(=O)O)C(=O)N2CCC[C@H]2C(=O)N[C@@H](CCC(=O)O)C(=O)NCC(=O)NCC(=O)NCC(N)=O)[C@@H](C)O)NC(=O)[C@H](CCCCN)NC(=O)[C@H](Cc2c[nH]c3ccccc23)NC(=O)[C@H](Cc2c[nH]c3ccccc23)NC(=O)[C@@H]2CCCN2C(=O)[C@H](Cc2ccc(O)cc2)NC(=O)[C@H](Cc2ccc(O)cc2)NC(=O)[C@H](CCCNC(=N)N)NC1=O` [NOTA-PEP2] ({NOTA}-GGGGDYSHCSPLRYYPWWKCTYPDPEGGG-NH2; disulfide 9-20), on ACE2 [1] (setting [3]), half-maximal inhibition (IC50) required 0.101 µM. Still for that read-out and setting: with `CC(C)C[C@H](NC(=O)[C@@H]1CCCN1C(=O)[C@H](CO)NC(=O)[C@H](CS)NC(=O)[C@H](Cc1c[nH]cn1)NC(=O)[C@H](CO)NC(=O)[C@H](Cc1ccc(O)cc1)NC(=O)[C@H](CC(=O)O)NC(=O)CNC(=O)CNC(=O)CNC(=O)CNC(=O)CN1CCN(CC(=O)O)CCN(CC(=O)O)CC1)C(=O)N[C@@H](CCCNC(=N)N)C(=O)N[C@@H](Cc1ccc(O)cc1)C(=O)N[C@@H](Cc1ccc(O)cc1)C(=O)N1CCC[C@H]1C(=O)N[C@@H](Cc1c[nH]c2ccccc12)C(=O)N[C@@H](Cc1c[nH]c2ccccc12)C(=O)N[C@@H](CCCCN)C(=O)N[C@@H](CS)C(=O)N[C@H](C(=O)N[C@@H](Cc1ccc(O)cc1)C(=O)N1CCC[C@H]1C(=O)N[C@@H](CC(=O)O)C(=O)N1CCC[C@H]1C(=O)N[C@@H](CCC(=O)O)C(=O)NCC(=O)NCC(=O)NCC(N)=O)[C@@H](C)O` [NOTA-PEP1] ({NOTA}-GGGGDYSHCSPLRYYPWWKCTYPDPEGGG-NH2) the figure was 2.4 µM; with `CC(C)C[C@@H]1NC(=O)[C@@H]2CCCN2C(=O)[C@H](CO)NC(=O)[C@@H](NC(=O)[C@H](Cc2c[nH]cn2)NC(=O)[C@H](CO)NC(=O)[C@H](Cc2ccc(O)cc2)NC(=O)[C@H](CC(=O)O)NC(=O)CNC(=O)CCCCCNC(=O)CN2CCN(CC(=O)O)CCN(CC(=O)O)CC2)CSSC[C@@H](C(=O)N[C@H](C(=O)N[C@@H](Cc2ccc(O)cc2)C(=O)N2CCC[C@H]2C(=O)N[C@@H](CC(=O)O)C(=O)N2CCC[C@H]2C(=O)N[C@@H](CCC(=O)O)C(=O)NCC(=O)NCC(=O)NCC(N)=O)[C@@H](C)O)NC(=O)[C@H](CCCCN)NC(=O)[C@H](Cc2c[nH]c3ccccc23)NC(=O)[C@H](Cc2c[nH]c3ccccc23)NC(=O)[C@@H]2CCCN2C(=O)[C@H](Cc2ccc(O)cc2)NC(=O)[C@H](Cc2ccc(O)cc2)NC(=O)[C@H](CCCNC(=N)N)NC1=O` [NOTA-PEP4], 0.0676 µM. Take `CC(C)C[C@@H]1NC(=O)[C@@H]2CCCN2C(=O)[C@H](CO)NC(=O)[C@@H](NC(=O)[C@H](Cc2c[nH]cn2)NC(=O)[C@H](CO)NC(=O)[C@H](Cc2ccc(O)cc2)NC(=O)[C@H](CC(=O)O)NC(=O)CNC(=O)CCOCCOCCNC(=O)CN2CCN(CC(=O)O)CCN(CC(=O)O)CC2)CSSC[C@@H](C(=O)N[C@H](C(=O)N[C@@H](Cc2ccc(O)cc2)C(=O)N2CCC[C@H]2C(=O)N[C@@H](CC(=O)O)C(=O)N2CCC[C@H]2C(=O)N[C@@H](CCC(=O)O)C(=O)NCC(=O)NCC(=O)NCC(N)=O)[C@@H](C)O)NC(=O)[C@H](CCCCN)NC(=O)[C@H](Cc2c[nH]c3ccccc23)NC(=O)[C@H](Cc2c[nH]c3ccccc23)NC(=O)[C@@H]2CCCN2C(=O)[C@H](Cc2ccc(O)cc2)NC(=O)[C@H](Cc2ccc(O)cc2)NC(=O)[C@H](CCCNC(=N)N)NC1=O` [NOTA-PEP6]: the “Change of observed ACE2 IC50 on addition of tris(2-carboxyethyl)phosphine (TCEP)” value at ACE2 [1] (TCEP reduces the disulfide bridge (producing linear NOTA-PEP5), Fig. 2E) is “markedly increased”. Further, the “ACE2 inhibition compared with parent DX600 peptide” value on ACE2 [1] (fluorometric ACE2 inhibition assay (AnaSpec), Figs. 2C and 2D) was “nearly identical to DX600”. `CC(=O)NCC(=O)N[C@@H](CC(=O)O)C(=O)N[C@@H](Cc1ccc(O)cc1)C(=O)N[C@@H](CO)C(=O)N[C@@H](Cc1c[nH]cn1)C(=O)N[C@H]1CSSC[C@@H](C(=O)N[C@H](C(=O)N[C@@H](Cc2ccc(O)cc2)C(=O)N2CCC[C@H]2C(=O)N[C@@H](CC(=O)O)C(=O)N2CCC[C@H]2C(=O)N[C@@H](CCC(=O)O)C(=O)NCC(=O)NCC(=O)NCC(N)=O)[C@@H](C)O)NC(=O)[C@H](CCCCN)NC(=O)[C@H](Cc2c[nH]c3ccccc23)NC(=O)[C@H](Cc2c[nH]c3ccccc23)NC(=O)[C@@H]2CCCN2C(=O)[C@H](Cc2ccc(O)cc2)NC(=O)[C@H](Cc2ccc(O)cc2)NC(=O)[C@H](CCCNC(=N)N)NC(=O)[C@H](CC(C)C)NC(=O)[C@@H]2CCCN2C(=O)[C@H](CO)NC1=O` [DX600, reference compound] came in with an IC50 against ACE2 [1] (setting [3]) of 0.114 µM. Besides, at ACE2 [2], the “Specificity for ACE2” value was “specificity for ACE2 vs. ACE and carboxypeptidase A”.
